Results taken from the NIST ThermoML archive (doi:10.1021/je200730m).

Details: Liquid, Closed cell (Static) method

CCCCCCCCCC(=O)OCC [ethyl decanoate]
Details | vapor or sublimation pressure [kPa]
303.1 K | 0.00446
313.16 K | 0.0105
333.23 K | 0.0478
343.2 K | 0.0952
353.16 K | 0.181
363.12 K | 0.328
412.15 K | 3.65
422.13 K | 5.472
432.24 K | 8.07
442.23 K | 11.55
452.28 K | 16.28
462.37 K | 22.35

CCCCCCCCCCCC(=O)OCC [ethyl dodecanoate]
Details | vapor or sublimation pressure [kPa]
313.1 K | 0.00183
351.88 K | 0.0346
362.1 K | 0.0674
372.12 K | 0.124
382.17 K | 0.229
392.24 K | 0.399
402.2 K | 0.669
422.15 K | 1.695
432.26 K | 2.647
442.27 K | 3.986
452.31 K | 5.804
462.43 K | 8.49

CCCCCC(=O)OCC [ethyl hexanoate]
Details | vapor or sublimation pressure [kPa]
253.41 K | 0.00344
263.26 K | 0.0106
283.06 K | 0.0663
293.05 K | 0.144
303.03 K | 0.291
313.15 K | 0.562
323.18 K | 1.018
333.11 K | 1.781
343.09 K | 2.978
351.97 K | 4.553
362.1 K | 7.184
372.13 K | 10.93
382.15 K | 16.07
392.23 K | 23.19
402.19 K | 32.56
412.21 K | 44.9
422.19 K | 60.62
432.28 K | 80.76
442.29 K | 105.57
452.34 K | 136.73
462.43 K | 174.6

CCCCCCCC(=O)OCC [ethyl octanoate]
Details | vapor or sublimation pressure [kPa]
273.26 K | 0.00219
283.08 K | 0.00627
293.05 K | 0.0156
303.09 K | 0.035
313.2 K | 0.0757
323.31 K | 0.152
351.9 K | 0.869
362.1 K | 1.487
372.06 K | 2.432
382.13 K | 3.872
392.19 K | 5.904
402.13 K | 8.723
412.13 K | 12.67
422.12 K | 18.04
432.22 K | 25.22
442.26 K | 34.49
452.3 K | 46.42

CCCCCCCCCCCCCC(=O)OCC [ethyl tetradecanoate]
Details | vapor or sublimation pressure [kPa]
333.22 K | 0.00147
343.19 K | 0.00361
353.15 K | 0.00775
363.09 K | 0.0163
371.72 K | 0.0302
382.03 K | 0.0572
391.87 K | 0.105
401.89 K | 0.187
411.93 K | 0.322
421.97 K | 0.539
432.22 K | 0.887
442.39 K | 1.394
452.25 K | 2.127
462.3 K | 3.2
